In patent US10968218B2, “Tetrahydropyridopyrimidines for the treatment and prophylaxis of hepatitis B virus infection” (Hoffmann-La Roche Inc., priority 2016, dated 2021):
pIC50: −log10 of the molar value.

These molecules were tested on HBsAg (assay: HBsAg assay (CLIA of secreted HBsAg in HepG2.2.15 culture supernatant)). Settings: Hepatitis B virus.
Format: cell-based, HBV
Protocol: HepG2.2.15 cells (Acs et al. Proc Natl Acad Sci USA, 84, (1987), 4641-4), a constitutively HBV-expressing cell line were cultured in DMEM+Glutamax-I medium (Invitrogen, Carlsbad, Calif., USA), supplemented with 10% fetal bovine serum (Invitrogen) and G418 (Invitrogen) at a final concentration of 200 mg/L and maintained in 5% CO2 at 37° C.
HepG2.2.15 cells were seeded in duplicate into white, 96-well plates at 1.5×10^4 cells/well. The cells were treated with a three-fold serial dilution series of the compounds in DMSO. The final DMSO concentration in all wells was 1% and DMSO was used as no drug control.
The HBsAg chemiluminescence immunoassay (CLIA) kit (Autobio Diagnostics Co., Zhengzhou, China, Catalog number: CL0310-2) was used to measure the levels of secreted HBV antigens semi-quantitatively. For the detection 50 μL/well culture supernatant was used and HBsAg was quantified using HBsAg chemiluminescence immunoassay (CLIA) kit (Autobio Diagnostics Co., Zhengzhou, China, Catalog number: CL0310-2), 50 μL of the supernatant was transferred to the CLIA assay plate and 50 μL of enzyme conjugate reagent was added into each well. The plates were sealed and gently agitated for 1 hour at room temperature. The supernatant-enzyme-mixture was discarded and wells were washed 6 times with 300 μL of PBS. The residual liquid was removed by plating the CLIA plate right side down on absorbent tissue paper. 25 μL of substrates A and B were added to each well. Luminance was measured using a luminometer (Mithras LB 940 Multimode Microplate Reader) after 10 minutes incubation. Dose-response curves were generated and the IC50 value was extrapolated by using the E-WorkBook Suite (ID Business Solutions Ltd., Guildford, UK). The IC50 was defined as the compound concentration at which HBsAg secretion was reduced by 50% compared to the no drug control.
The compounds according to formula I were tested for their capacity to inhibit HBsAg as described herein.

Structure (SMILES) | pIC50
CC1c2cnc(-c3cscn3)nc2CCN1c1cc(F)nc(OCCCN2CCCC2=O)c1 (centres unmarked) [Example 40, 1-[3-[[6-fluoro-4-(5-methyl-2-thiazol-4-yl-7,8-dihydro-5H-pyrido[4,3-d]pyrimidin-6-yl)-2-pyridyl]oxy]propyl]pyrrolidin-2-one] | 6.65
COc1cc(F)nc(N2CCc3nc(-c4cn(C)cn4)ncc3C2C)c1 (centres unmarked) [Example 8, 6-(6-Fluoro-4-methoxy-2-pyridyl)-5-methyl-2-(1-methylimidazol-4-yl)-7,8-dihydro-5H-pyrido[4,3-d]pyrimidine] | 7.54
COc1cc(F)nc(N2CCc3nc(-c4ncsc4C)ncc3C2C)c1 (centres unmarked) [Example 42, 4-[6-(6-Fluoro-4-methoxy-2-pyridyl)-5-methyl-7,8-dihydro-5H-pyrido[4,3-d]pyrimidin-2-yl]-5-methyl-thiazole] | 6.55
COc1cc(F)nc(N2CCc3nc(-c4ncco4)ncc3C2C)c1 (centres unmarked) [Example 4, 2-[6-(6-Fluoro-4-methoxy-2-pyridyl)-5-methyl-7,8-dihydro-5H-pyrido[4,3-d]pyrimidin-2-yl]oxazole] | 6.50
COc1cc(F)nc(N2CCc3nc(-c4cn(Cc5ccccc5)cn4)ncc3C2C)c1 (centres unmarked) [Example 10, 2-(1-Benzylimidazol-4-yl)-6-(6-fluoro-4-methoxy-2-pyridyl)-5-methyl-7,8-dihydro-5H-pyrido[4,3-d]pyrimidine] | 6.38
COc1cc(F)nc(N2CCc3nc(-c4nccs4)ncc3C2C)c1 (centres unmarked) [Example 6, 2-[6-(6-Fluoro-4-methoxy-2-pyridyl)-5-methyl-7,8-dihydro-5H-pyrido[4,3-d]pyrimidin-2-yl]thiazole] | 6.93
CC1c2cnc(-c3cscn3)nc2CCN1c1cc(F)nc(N2CCOCC2)c1 (centres unmarked) [Example 12, 4-[6-fluoro-4-(5-methyl-2-thiazol-4-yl-7,8-dihydro-5H-pyrido[4,3-d]pyrimidin-6-yl)-2-pyridyl]morpholine] | 7.44
COC1CCN(c2cc(F)cc(N3CCc4nc(-c5cscn5)ncc4C3C)n2)C1 (centres unmarked) [Example 25, 4-[6-[4-fluoro-6-(3-methoxypyrrolidin-1-yl)-2-pyridyl]-5-methyl-7,8-dihydro-5H-pyrido[4,3-d]pyrimidin-2-yl]thiazole] | 7.22
CC1c2cnc(-c3cscn3)nc2CCN1c1cc(F)cc(N2CCCC2)n1 (centres unmarked) [Example 19, 4-[6-(4-fluoro-6-pyrrolidin-1-yl-2-pyridyl)-5-methyl-7,8-dihydro-5H-pyrido[4,3-d]pyrimidin-2-yl]thiazole] | 6.76
CC1c2cnc(-c3cscn3)nc2CCN1c1cc(F)nc(OCC2CCOC2)c1 (centres unmarked) [Example 37, 4-[6-[2-fluoro-6-(tetrahydrofuran-3-ylmethoxy)-4-pyridyl]-5-methyl-7,8-dihydro-5H-pyrido[4,3-d]pyrimidin-2-yl]thiazole] | 7.15
CC1c2cnc(-c3cscn3)nc2CCN1c1cc(N2CCCC2)cc(F)n1 (centres unmarked) [Example 18, 4-[6-(6-fluoro-4-pyrrolidin-1-yl-2-pyridyl)-5-methyl-7,8-dihydro-5H-pyrido[4,3-d]pyrimidin-2-yl]thiazole] | 7.80
CC1c2cnc(-c3cscn3)nc2CCN1c1cc(F)cc(N2CCNC(=O)C2)n1 (centres unmarked) [Example 30, 4-[4-fluoro-6-(5-methyl-2-thiazol-4-yl-7,8-dihydro-5H-pyrido[4,3-d]pyrimidin-6-yl)-2-pyridyl]piperazin-2-one] | 7.68
COC1CCN(c2cc(N3CCc4nc(-c5cscn5)ncc4C3C)cc(F)n2)C1 (centres unmarked) [Example 23, 4-[6-[2-fluoro-6-(3-methoxypyrrolidin-1-yl)-4-pyridyl]-5-methyl-7,8-dihydro-5H-pyrido[4,3-d]pyrimidin-2-yl]thiazole] | 7.46
COc1cc(F)nc(N2CCc3nc(-n4cccn4)ncc3C2C)c1 (centres unmarked) [Example 9, 6-(6-Fluoro-4-methoxy-2-pyridyl)-5-methyl-2-pyrazol-1-yl-7,8-dihydro-5H-pyrido[4,3-d]pyrimidine] | 7.02
CC1c2cnc(-c3cscn3)nc2CCN1c1cc(F)cc(OCC(F)F)n1 (centres unmarked) [Example 36, 4-[6-[6-(2,2-difluoroethoxy)-4-fluoro-2-pyridyl]-5-methyl-7,8-dihydro-5H-pyrido[4,3-d]pyrimidin-2-yl]thiazole] | 6.95
COc1cc(F)nc(N2CCc3nc(-c4nccn4C)ncc3C2C)c1 (centres unmarked) [Example 7, 6-(6-Fluoro-4-methoxy-2-pyridyl)-5-methyl-2-(1-methylimidazol-2-yl)-7,8-dihydro-5H-pyrido[4,3-d]pyrimidine] | 4.78
CC1c2cnc(-c3cscn3)nc2CCN1c1cc(OCCCN2CCCC2=O)cc(F)n1 (centres unmarked) [Example 41, 1-[3-[[2-fluoro-6-(5-methyl-2-thiazol-4-yl-7,8-dihydro-5H-pyrido[4,3-d]pyrimidin-6-yl)-4-pyridyl]oxy]propyl]pyrrolidin-2-one] | 6.99
CC1c2cnc(-c3cscn3)nc2CCN1c1cc(F)cc(N2CCN(S(C)(=O)=O)CC2)n1 (centres unmarked) [Example 22, 4-[6-[4-fluoro-6-(4-methylsulfonylpiperazin-1-yl)-2-pyridyl]-5-methyl-7,8-dihydro-5H-pyrido[4,3-d]pyrimidin-2-yl]thiazole] | 7.18
CC1c2cnc(-c3cscn3)nc2CCN1c1cc(N2CCNC(=O)C2)cc(F)n1 (centres unmarked) [Example 29, 4-[2-fluoro-6-(5-methyl-2-thiazol-4-yl-7,8-dihydro-5H-pyrido[4,3-d]pyrimidin-6-yl)-4-pyridyl]piperazin-2-one] | 7.47
CC1c2cnc(-c3cscn3)nc2CCN1c1cc(F)nc(N2CCCC2)c1 (centres unmarked) [Example 17, 4-[6-(2-fluoro-6-pyrrolidin-1-yl-4-pyridyl)-5-methyl-7,8-dihydro-5H-pyrido[4,3-d]pyrimidin-2-yl]thiazole] | 7.77
CC1c2cnc(-c3cscn3)nc2CCN1c1cc(F)cc(OCC2CC2)n1 (centres unmarked) [Example 33, 4-[6-[6-(cyclopropylmethoxy)-4-fluoro-2-pyridyl]-5-methyl-7,8-dihydro-5H-pyrido[4,3-d]pyrimidin-2-yl]thiazole] | 6.67
CC1c2cnc(-c3cscn3)nc2CCN1c1cc(F)cc(OCC2CCOC2)n1 (centres unmarked) [Example 39, 4-[6-[4-fluoro-6-(tetrahydrofuran-3-ylmethoxy)-2-pyridyl]-5-methyl-7,8-dihydro-5H-pyrido[4,3-d]pyrimidin-2-yl]thiazole] | 6.86
CC1c2cnc(-c3cscn3)nc2CCN1c1cc(OCC2CC2)cc(F)n1 (centres unmarked) [Example 32, 4-[6-[4-(cyclopropylmethoxy)-6-fluoro-2-pyridyl]-5-methyl-7,8-dihydro-5H-pyrido[4,3-d]pyrimidin-2-yl]thiazole] | 7.41
CC1c2cnc(-c3cscn3)nc2CCN1c1cc(OCC(F)F)cc(F)n1 (centres unmarked) [Example 35, 4-[6-[4-(2,2-difluoroethoxy)-6-fluoro-2-pyridyl]-5-methyl-7,8-dihydro-5H-pyrido[4,3-d]pyrimidin-2-yl]thiazole] | 7.41
CC1c2cnc(-c3cscn3)nc2CCN1c1cc(N2CCN(S(C)(=O)=O)CC2)cc(F)n1 (centres unmarked) [Example 21, 4-[6-[6-fluoro-4-(4-methylsulfonylpiperazin-1-yl)-2-pyridyl]-5-methyl-7,8-dihydro-5H-pyrido[4,3-d]pyrimidin-2-yl]thiazole] | 7.80
CC1c2cnc(-c3cscn3)nc2CCN1c1cc(OCC2CCOC2)cc(F)n1 (centres unmarked) [Example 38, 4-[6-[6-fluoro-4-(tetrahydrofuran-3-ylmethoxy)-2-pyridyl]-5-methyl-7,8-dihydro-5H-pyrido[4,3-d]pyrimidin-2-yl]thiazole] | 7.70
